Data on two compounds can be found in ChEMBL document CHEMBL5107975, “HIV nucleoside reverse transcriptase inhibitors” (Eur J Med Chem, 2022).

The structures appear in SMILES notation.

Series [1] relates to Human immunodeficiency virus 1. The series can be described thus: Antiviral activity against HIV-1. It is filed as functional, organism-based.
Series [2] can be described thus: Oral bioavailability in human relative to control. As to conditions: in vivo. It is filed as ADME, organism-based.
Series [3] can be described thus: Elimination half life in human administered po. As to conditions: read-out: LambdaZ (converted). It is filed as ADME.
The nature of series [4]: Drug elimination in human urine assessed as unchanged drug administered po relative to control. As to conditions: read-out: Drug excretion. In kind it is ADME, organism-based.

As usually defined, the EC50 is the concentration giving half of the maximal effect. A word on the bioavailability: it is dose-corrected exposure relative to a reference, in per cent. The low end stands for poor availability, the high end for good availability. For the compound `C=C1[C@H](CO)[C@@H](O)C[C@@H]1n1cnc2c(=O)[nH]c(N)nc21.O` [ENTECAVIR], in series [1], the EC50 was > 1000 nM. In addition, the bioavailability in series [2] was found to be 100%. In addition, in series [3], the half-life was 128 h. In addition, the dose excreted in series [4] was determined as 62%.

The compound `Nc1ccn([C@@H]2CS[C@H](CO)O2)c(=O)n1` [LAMIVUDINE] yielded an EC50 in series [1] of 2 nM.
